Results from PMC7126545 (Bioorganic & Medicinal Chemistry Letters, 2016).

Experiments:
[1] = tested on: L1210, CEM and HeLa cells; conditions: for cytostatic activity (in words): tumour cell lines
in vitro [2] = assay: in vitro
in vitro [3] = conditions: mouse (L1210), human (CEM, HeLa)

Row | Compound | cytostatic activity (in words) [1] | times less potent than EAdo ([1]; cytostatic potency relative to EAdo in the three cell lines) | CC50 (in vitro [2]) | IC50 (in vitro [3])
1 | C#C[C@@]1(O)[C@@H](CO)O[C@@H](n2cnc3c(N)nc(Cl)nc32)[C@@H]1O [Compound 7] | did not show any cytostatic activity |  |  | 
2 | C#C[C@@]1(O)[C@@H](CO)O[C@@H](n2cnc3c(N)ncnc32)[C@@H]1O [Compound 1, 3′-C-ethynyladenosine, reference compound] | potent cytostatic activity |  |  | 
3 | C#C[C@@]1(O)[C@@H](CO)O[C@@H](n2cnc3c(NCc4cccc(Cl)c4)nc(Cl)nc32)[C@@H]1O [Compound 10] |  | at least 30 | 34.5 µM | 22 to 50 µM
